Common to all, as to test: relative viability (nuclei count vs DMSO), 5 days (fraction); higher = more cells survive
Compound in assay [1]: CC1=CC(=CC=C1)NC2=NC(=CS2)C3=CC=NC=C3 + O=C(c1cc(Cc2n[nH]c(=O)c3ccccc23)ccc1F)N1CCN(C(=O)C2CC2)CC1 [Olaparib] (partner 8 µM)
Put shortly:
(§1)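 After 5 days of treatment, lung cancer cells in 1536-well plates were fixed and stained in a single step (final 0.05% Triton X-100, 1% formaldehyde, 1 ug/ml Hoechst) and their nuclei counted on 4× images. Treatment had been applied by pin tool the day after seeding as one drug alone or as a fixed anchor-drug dose with five library-drug doses (not always all listed) in √10 steps. Relative viability is the nuclei count of treated wells divided by that of vehicle wells, and values are medians of duplicate plates.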

Compound in the assay “Masitinib + Dasatinib”: Cc1ccc(NC(=O)c2ccc(CN3CCN(C)CC3)cc2)cc1Nc1nc(-c2cccnc2)cs1 [Masitinib] + Cc1nc(Nc2ncc(C(=O)Nc3c(C)cccc3Cl)s2)cc(N2CCN(CCO)CC2)n1 [Dasatinib] (partner 0.075 µM)
The method in brief:
as §1

Compound in assay [2]: CC1=CC(=CC=C1)NC2=NC(=CS2)C3=CC=NC=C3 + CS(=O)(=O)N1CCN(Cc2cc3nc(-c4cccc5[nH]ncc45)nc(N4CCOCC4)c3s2)CC1 [Pictilisib] (partner 1 µM)
Put shortly:
as §1

Compound in assay [3]: CC1=CC(=CC=C1)NC2=NC(=CS2)C3=CC=NC=C3 + CC1(C)CCC(c2ccc(Cl)cc2)=C(CN2CCN(c3ccc(C(=O)NS(=O)(=O)c4ccc(N[C@H](CCN5CCOCC5)CSc5ccccc5)c(S(=O)(=O)C(F)(F)F)c4)cc3)CC2)C1 [Navitoclax] (partner 0.5 µM)
Put shortly: as §1

UMC-11: the relative viability turned out to be 0.339 in assay [1] (first compound 0.08 µM); 0.386 in assay [1] (first compound 0.253 µM); 0.381 in assay [1] (first compound 0.8 µM); 0.806 in assay [1] (first compound 2.53 µM); 0.402 in assay [1] (first compound 8 µM); 0.35 with Masitinib + Dasatinib (first compound 0.03162 µM). The relative viability with Masitinib + Dasatinib (first compound 0.1 µM) came out at 0.535; with Masitinib + Dasatinib (first compound 0.3162 µM), 0.556; with Masitinib + Dasatinib (first compound 1 µM), 0.509; in assay [2] (first compound 0.08 µM) it was 0.757; in assay [2] (first compound 0.253 µM), 0.746; in assay [2] (first compound 0.8 µM), 0.729. Besides, the relative viability in assay [2] (first compound 2.53 µM) was 0.761; in assay [2] (first compound 8 µM), 0.824; in assay [3] (first compound 0.08 µM) it was 0.281; in assay [3] (first compound 0.253 µM) it was 0.266; in assay [3] (first compound 0.8 µM) it was 0.295; in assay [3] (first compound 2.53 µM), 0.348. Also, the relative viability in assay [3] (first compound 8 µM) stood at 0.478.

Source of the values: the supplement of paper PMC10307832.
